Where two headings read alike, the source gives them in different places. Values belong to the molecule of their own block, whether it stands above or below them. Where a SMILES comes first, the peptide text is derived from it. Bridges are numbered along the chain shown (N, C = ends). [ ]: non-standard residue; d: D form. PEG12 = NCCOCCOCCOCCOCCOCCOCCOCCOCCOCCOCCOCCOCCC(=O)O; NMePhe(3-Cl) = CN[C@@H](Cc1cccc(Cl)c1)C(=O)O; NMeW = CN[C@@H](Cc1c[nH]c2ccccc12)C(=O)O; Lys(N3) = [N-]=[N+]=NCCCC[C@H](N)C(=O)O; NMeY = CN[C@@H](Cc1ccc(O)cc1)C(=O)O; NMeF = CN[C@@H](Cc1ccccc1)C(=O)O; Ahp(2) = CCCCC[C@H](N)C(=O)O; PEG4 = NCCOCCOCCOCCOCCC(=O)O; dOrn = NCCC[C@@H](N)C(=O)O
Target: transferrin receptor (hTfR) (Homo sapiens, UniProt P02786)
Test: Intermolecular interaction evaluation test between transferrin receptor (hTfR) and peptide by surface plasmon resonance (SPR)
Type: binding
Outline: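 Receptor was Ni-captured and EDC/NHS-fixed on an NTA chip; running buffer HEPES pH 8.0 with NaCl, Tween 20, BSA and 1.0% DMSO.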

[1] = binding to hTfR by SPR, Table 2 peptides, read-out: KD value (SPR) class
[2] = surface plasmon resonance, peptide vs hTfR, read-out: KD value for hTfR by SPR (class symbol)
[3] = surface plasmon resonance, peptide vs hTfR, read-out: KD value, hTfR binding by SPR (class symbol)
[4] = SPR, hTfR No. 894 variants with PEG12c linker (Table 2), read-out: KD

Chain of transferrin receptor (hTfR) (P02786 whole entry): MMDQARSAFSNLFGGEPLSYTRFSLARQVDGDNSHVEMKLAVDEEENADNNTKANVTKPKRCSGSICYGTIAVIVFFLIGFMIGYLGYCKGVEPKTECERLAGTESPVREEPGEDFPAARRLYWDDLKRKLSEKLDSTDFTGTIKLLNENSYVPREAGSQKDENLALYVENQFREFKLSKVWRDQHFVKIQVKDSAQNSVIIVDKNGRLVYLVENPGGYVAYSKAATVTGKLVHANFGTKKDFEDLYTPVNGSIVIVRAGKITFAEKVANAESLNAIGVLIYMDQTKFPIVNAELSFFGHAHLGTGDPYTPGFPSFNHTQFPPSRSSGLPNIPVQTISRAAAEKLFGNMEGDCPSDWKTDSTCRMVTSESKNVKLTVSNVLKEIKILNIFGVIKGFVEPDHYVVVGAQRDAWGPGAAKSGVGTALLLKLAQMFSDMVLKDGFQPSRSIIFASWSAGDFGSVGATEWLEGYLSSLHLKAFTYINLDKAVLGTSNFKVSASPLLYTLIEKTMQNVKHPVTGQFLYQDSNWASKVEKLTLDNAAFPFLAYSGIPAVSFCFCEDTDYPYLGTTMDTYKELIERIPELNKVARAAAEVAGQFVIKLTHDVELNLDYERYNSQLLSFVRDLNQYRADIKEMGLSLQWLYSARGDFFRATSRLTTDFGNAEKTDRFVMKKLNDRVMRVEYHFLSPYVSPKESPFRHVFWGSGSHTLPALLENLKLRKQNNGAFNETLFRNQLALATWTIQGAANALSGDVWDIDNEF

Kd [1]: 100 to 1000 nM
SMILES: CCCCC[C@@H]1NC(=O)[C@H](CC(N)=O)NC(=O)[C@H](Cc2c[nH]c3ccccc23)NC(=O)[C@H](C(C)C)NC(=O)[C@H](Cc2ccccc2)N(C)C(=O)[C@H](C(C)C)NC(=O)[C@H](C)NC(=O)CSC[C@@H](C(=O)NCC(=O)N[C@@H](CCCCN=[N+]=[N-])C(N)=O)NC(=O)[C@H](Cc2ccc(O)cc2)N(C)C(=O)[C@H](Cc2ccc(O)cc2)NC(=O)[C@H](CCCNC(=N)N)NC(=O)[C@H](CCCNC(=N)N)NC(=O)[C@H]([C@@H](C)CC)NC(=O)[C@H]([C@@H](C)CC)NC(=O)[C@H](Cc2ccc(O)cc2)NC1=O [compound 276] ({CH2CO}-AV[NMeF]VWN[Ahp(2)]YIIRRY[NMeY]CG[Lys(N3)]-NH2; thioether N-15)

Kd [2]: 1 to 100 nM
SMILES: CC[C@H](C)[C@@H]1NC(=O)[C@H](Cc2ccc(O)cc2)NC(=O)[C@H](Cc2ccc(O)cc2)NC(=O)[C@H](CC(N)=O)NC(=O)[C@H](Cc2c[nH]c3ccccc23)NC(=O)[C@H](C(C)C)NC(=O)[C@H](Cc2ccccc2)N(C)C(=O)[C@H](C(C)C)NC(=O)[C@H](C)NC(=O)CSC[C@@H](C(=O)NCC(=O)N[C@H](CCC(=O)O)C(=O)N[C@H](CCC(=O)O)C(=O)N[C@H](CCC(=O)O)C(=O)N[C@@H](CO)C(=O)N[C@@H](CO)C(=O)N[C@@H](CSCC(=O)NC)C(N)=O)NC(=O)[C@H](Cc2ccc(O)cc2)N(C)C(=O)[C@H](Cc2ccc(O)cc2)NC(=O)[C@H](CCCNC(=N)N)NC(=O)[C@H](CCCNC(=N)N)NC(=O)[C@H]([C@@H](C)CC)NC1=O [compound 424]

Kd [3]: 1 to 100 nM
SMILES: CC[C@H](C)[C@@H]1NC(=O)[C@H](Cc2ccc(O)cc2)NC(=O)[C@H](Cc2ccc(O)cc2)NC(=O)[C@H](CC(N)=O)NC(=O)[C@H](Cc2c[nH]c3ccccc23)NC(=O)[C@H](C(C)C)NC(=O)[C@H](Cc2ccccc2)N(C)C(=O)[C@H](C(C)C)NC(=O)[C@H](C)NC(=O)CSC[C@@H](C(N)=O)NC(=O)[C@H](Cc2ccc(O)cc2)N(C)C(=O)[C@H](Cc2ccc(O)cc2)NC(=O)[C@H](CCCNC(=N)N)NC(=O)[C@H](CCCCN)NC(=O)[C@H]([C@@H](C)CC)NC1=O [compound 293]

Kd [4]: 1 to 100 nM
SMILES: CC[C@H](C)[C@@H]1NC(=O)[C@H](Cc2ccc(O)cc2)NC(=O)[C@H](Cc2ccc(O)cc2)NC(=O)[C@H](CC(N)=O)NC(=O)[C@H](Cc2c[nH]c3ccccc23)NC(=O)[C@H](C(C)C)NC(=O)[C@H](Cc2ccccc2)N(C)C(=O)[C@H](C(C)C)NC(=O)[C@H](C)NC(=O)CSC[C@@H](C(=O)NCCOCCOCCOCCOCCOCCOCCOCCOCCOCCOCCOCCOCCC(N)=O)NC(=O)[C@H](C)NC(=O)[C@H](Cc2ccc(O)cc2)NC(=O)[C@H](CCCNC(=N)N)NC(=O)[C@H](CCCNC(=N)N)NC(=O)[C@H]([C@@H](C)CC)NC1=O [compound 117] ({CH2CO}-AV[NMeF]VWNYYIIRRYAC[PEG12]-NH2; thioether N-15)

Kd [1]: 1 to 100 nM
SMILES: CC[C@H](C)[C@@H]1NC(=O)[C@H](C2CCCCC2)NC(=O)[C@H](Cc2ccc(O)cc2)NC(=O)[C@H](Cc2ccc(O)cc2)NC(=O)[C@H](CC(N)=O)NC(=O)[C@H](Cc2c[nH]c3ccccc23)NC(=O)[C@H](C(C)C)NC(=O)[C@H](Cc2ccccc2)N(C)C(=O)[C@H](C(C)C)NC(=O)[C@H](C)NC(=O)CSC[C@@H](C(N)=O)NC(=O)[C@H](Cc2ccc(O)cc2)N(C)C(=O)[C@H](Cc2ccc(O)cc2)NC(=O)[C@H](CCCNC(=N)N)NC(=O)[C@H](CCCNC(=N)N)NC1=O [compound 282]

Kd [2]: 1 to 100 nM
SMILES: CC[C@H](C)[C@@H]1NC(=O)[C@H](Cc2ccc(O)cc2)NC(=O)[C@H](Cc2ccc(O)cc2)NC(=O)[C@H](CC(N)=O)NC(=O)[C@H](Cc2c[nH]c3ccccc23)NC(=O)[C@H](C(C)C)NC(=O)[C@H](Cc2ccccc2)N(C)C(=O)[C@H](C(C)C)NC(=O)[C@H](C)NC(=O)CSC[C@@H](C(=O)NCC(=O)O)NC(=O)[C@H](Cc2ccc(O)cc2)N(C)C(=O)[C@H](Cc2ccc(O)cc2)NC(=O)[C@H](CCCNC(=N)N)NC(=O)[C@H](CCCNC(=N)N)NC(=O)[C@H]([C@@H](C)CC)NC1=O [compound 421]

Kd [1]: 100 to 1000 nM
SMILES: CC[C@H](C)[C@@H]1NC(=O)[C@H](Cc2ccc(OC)cc2)NC(=O)[C@H](Cc2ccc(O)cc2)NC(=O)[C@H](CC(N)=O)NC(=O)[C@H](Cc2c[nH]c3ccccc23)N(C)C(=O)[C@H](C(C)C)NC(=O)[C@H](Cc2cccc(Cl)c2)N(C)C(=O)[C@H](CCC(=O)O)NC(=O)[C@H](C)NC(=O)CSC[C@@H](C(=O)N[C@H](CCC(=O)O)C(=O)NCC(=O)NCC(=O)NCC(=O)N[C@@H](CO)C(=O)N[C@@H](CO)C(=O)N[C@@H](CS)C(N)=O)NC(=O)[C@H](Cc2ccc(O)cc2)N(C)C(=O)[C@H](Cc2ccccc2)NC(=O)[C@@H](CCCNC(=N)N)NC(=O)[C@H](CCCNC(=N)N)NC(=O)[C@H]([C@@H](C)CC)NC1=O [compound 235]

Kd [4]: 1 to 100 nM
SMILES: CC[C@H](C)[C@@H]1NC(=O)[C@H](Cc2ccc(O)cc2)NC(=O)[C@H](Cc2ccc(O)cc2)NC(=O)[C@H](CC(N)=O)NC(=O)[C@H](Cc2c[nH]c3ccccc23)NC(=O)[C@H](C(C)C)NC(=O)[C@H](Cc2ccc(OC)cc2)N(C)C(=O)[C@H](C(C)C)NC(=O)[C@H](C)NC(=O)CSC[C@@H](C(=O)NCCOCCOCCOCCOCCOCCOCCOCCOCCOCCOCCOCCOCCC(N)=O)NC(=O)[C@H](Cc2ccc(O)cc2)N(C)C(=O)[C@H](Cc2ccc(O)cc2)NC(=O)[C@H](CCCNC(=N)N)NC(=O)[C@H](CCCNC(=N)N)NC(=O)[C@H]([C@@H](C)CC)NC1=O [compound 136] ({CH2CO}-AV[NMeY](Me)VWNYYIIRRY[NMeY]C[PEG12]-NH2; thioether N-15)

Kd (SPR, peptides, linker-added peptides and FITC conjugates, Patent ID 203-230, read-out: KD): 1 to 100 nM
SMILES: CC[C@H](C)[C@@H]1NC(=O)[C@H](Cc2ccc(OC)cc2)NC(=O)[C@H](Cc2ccc(O)cc2)NC(=O)[C@H](CC(N)=O)NC(=O)[C@H](Cc2c[nH]c3ccccc23)N(C)C(=O)[C@H](C(C)C)NC(=O)[C@H](Cc2cccc(Cl)c2)N(C)C(=O)[C@H](C(C)C)NC(=O)[C@H](C)N(C)C(=O)CSC[C@@H](C(N)=O)NC(=O)[C@H](Cc2ccc(O)cc2)N(C)C(=O)[C@H](Cc2ccccc2)NC(=O)[C@@H](CCCNC(=N)N)NC(=O)[C@H](CCCNC(=N)N)NC(=O)[C@H]([C@@H](C)CC)NC1=O [compound 215]

Kd [1]: 1 to 100 nM
SMILES: CC[C@H](C)[C@@H]1NC(=O)[C@H](Cc2ccc(O)cc2)NC(=O)[C@H](Cc2ccc(O)cc2)NC(=O)[C@H](CC(N)=O)NC(=O)[C@H](Cc2c[nH]c3ccccc23)NC(=O)[C@H](C(C)C)NC(=O)[C@H](Cc2ccccc2)NC(=O)[C@H](C(C)C)NC(=O)[C@H](C)NC(=O)CSC[C@@H](C(N)=O)NC(=O)[C@H](Cc2ccc(O)cc2)N(C)C(=O)[C@H](CCCNC(=N)N)NC(=O)[C@H](CCCNC(=N)N)NC(=O)[C@H](CCCNC(=N)N)NC(=O)[C@H]([C@@H](C)CC)NC1=O [compound 260]

Kd [3]: 1 to 100 nM
SMILES: CC[C@H](C)[C@@H]1NC(=O)[C@H](Cc2ccc(OC)cc2)NC(=O)[C@H](Cc2ccc(O)cc2)NC(=O)[C@H](CC(N)=O)NC(=O)[C@H](Cc2c[nH]c3ccccc23)N(C)C(=O)[C@H](C(C)C)NC(=O)[C@H](Cc2cccc(Cl)c2)N(C)C(=O)[C@H](C(C)C)NC(=O)[C@H](C)NC(=O)CSC[C@@H](C(=O)NCCOCCOCCOCCOCCC(N)=O)NC(=O)[C@H](Cc2ccc(O)cc2)N(C)C(=O)[C@H](Cc2ccccc2)NC(=O)[C@@H](CCCNC(=N)N)NC(=O)[C@H](CCCNC(=N)N)NC(=O)[C@H]([C@H](C)O)NC1=O [compound 332]

Kd [1]: 1 to 100 nM
SMILES: CC[C@H](C)[C@@H]1NC(=O)[C@H](Cc2ccc(O)cc2)NC(=O)[C@H](Cc2ccc(O)cc2)NC(=O)[C@H](CC(N)=O)NC(=O)[C@H](Cc2cn(CCO)c3ccccc23)NC(=O)[C@H](C(C)C)NC(=O)[C@H](Cc2ccccc2)N(C)C(=O)[C@H](C(C)C)NC(=O)[C@H](C)NC(=O)CSC[C@@H](C(N)=O)NC(=O)[C@H](Cc2ccc(O)cc2)N(C)C(=O)[C@H](Cc2ccc(O)cc2)NC(=O)[C@H](CCCNC(=N)N)NC(=O)[C@H](CCCNC(=N)N)NC(=O)[C@H]([C@@H](C)CC)NC1=O [compound 271]

Kd [3]: 1 to 100 nM
SMILES: CC[C@H](C)[C@@H]1NC(=O)[C@H](Cc2ccc(OC)cc2)NC(=O)[C@H](Cc2ccc(O)cc2)NC(=O)[C@H](CC(N)=O)NC(=O)[C@H](Cc2c[nH]c3ccccc23)NC(=O)[C@H](C(C)C)NC(=O)[C@H](Cc2cccc(Cl)c2)N(C)C(=O)[C@H](C(C)C)NC(=O)[C@H](C)NC(=O)CSC[C@@H](C(=O)NCC(=O)NCC(=O)N[C@@H](CO)C(=O)NCC(=O)N[C@@H](CO)C(=O)NCC(=O)N[C@@H](CCCCN=[N+]=[N-])C(N)=O)NC(=O)[C@H](Cc2ccc(O)cc2)N(C)C(=O)[C@H](Cc2ccccc2)NC(=O)[C@@H](CCCCN)NC(=O)[C@H](CCCNC(=N)N)NC(=O)[C@H]([C@@H](C)CC)NC1=O [compound 313]

Kd (surface plasmon resonance, hTfR, read-out: KD value for hTfR by SPR (class symbol)): 1 to 100 nM
SMILES: CC[C@H](C)[C@@H]1NC(=O)[C@H](Cc2ccc(OC)cc2)NC(=O)[C@H](Cc2ccc(O)cc2)NC(=O)[C@H](CC(N)=O)NC(=O)[C@H](Cc2c[nH]c3ccccc23)N(C)C(=O)[C@H](C(C)C)NC(=O)[C@H](Cc2cccc(Cl)c2)N(C)C(=O)[C@H](C(C)C)NC(=O)[C@H](C)NC(=O)CSC[C@@H](C(=O)NCCOCCOCCOCCOCCC(N)=O)NC(=O)[C@H](Cc2ccc(O)cc2)N(C)C(=O)[C@H](Cc2ccccc2)NC(=O)[C@@H](CCCNC(=N)N)NC(=O)[C@@H](CCCN)NC(=O)[C@H]([C@@H](C)CC)NC1=O [compound 368] ({CH2CO}-AV[NMePhe(3-Cl)]V[NMeW]NYY(Me)II[dOrn][dR]F[NMeY]C[PEG4]-NH2; thioether N-15)

Reference: patent publication US20230203098A1, “HUMAN TRANSFERRIN RECEPTOR BINDING PEPTIDE” (priority 2020, published 2023)
